Molecules are shown by their SMILES.

One assay has as its system L1210 murine leukaemia. Nature of the assay: In vitro cytotoxicity, Microculture Tetrazolium Assay, L1210. As to conditions: L1210, 2 days incubation; read-out: IC50 (concentration which inhibits proliferation of the treated cells by 50%). In kind it is cell-based. The procedure:
(§1) Four cell lines were used: • 1 murine leukaemia: L1210, • 1 human epidermoid carcinoma: KB-3-1, • 1 human colon carcinoma: HT29, • 1 human prostate carcinoma: LNCap.
(§2) The cells are cultured in RPMI 1640 complete culture medium containing 10% foetal calf serum, 2 mM glutamine, 50 units/ml of penicillin, 50 μg/ml of streptomycin and 10 mM Hepes, pH=7.4. The cells are distributed on microplates and are exposed to the cytotoxic compounds. The cells are then incubated for 2 days (L1210) or 4 days (human lines). The number of viable cells is then quantified by a colorimetric assay, the Microculture Tetrazolium Assay (Cancer Res. 1987, 47, 939-942). The results are expressed in terms of the IC50 (the concentration of cytotoxic agent which inhibits proliferation of the treated cells by 50%).

The subject of assay [1] is HT29 human colon carcinoma. The assay is described as follows: In vitro cytotoxicity, Microculture Tetrazolium Assay, HT29. In kind it is cell-based. As to conditions: HT-29, 4 days incubation; read-out: IC50 (concentration which inhibits proliferation of the treated cells by 50%). The procedure: as §1, §2
In assay [2] the test system is LNCap human prostate carcinoma. The assay is described as follows: In vitro cytotoxicity, Microculture Tetrazolium Assay, LNCap. In kind it is cell-based. As to conditions: 4 days incubation, read-out: IC50 (concentration which inhibits proliferation of the treated cells by 50%). The procedure:
as §1, §2

Assay [3] relates to C38 adenocarcinoma of the colon. The assay is described as follows: Anti-tumour activity with respect to C38 adenocarcinoma of the colon. In kind it is in vivo. As to conditions: i.v. on days 12 and 22, s.c. C38 in B6D2F1 mice. The procedure:
Anti-Tumour Activity with Respect to C38 Adenocarcinoma of the Colon
Tumour fragments of C38 adenocarcinoma of the colon weighing approximately 30 mg were implanted under the skin of B6D2F1 mice (Iffa Credo, France) on day 0. After growth of the tumour, the mice were divided into control (18 animals) and treated (6 or 7 animals) groups, which were homogeneous with respect to tumour size. The products were administered twice by the i.v. route on days 12 and 22, at their Maximum Tolerated Dose (MTD), MTD/2 and MTD/4.
The tumours were measured twice a week and the tumour volumes were calculated according to the following formula: volume (mm^3)=length (mm)×[…]/2.
The anti-tumour activity is expressed as % T/C: […]
V0 and Vt being the initial volume of the tumour and its volume at measurement time t, respectively.
The optimum dose is the dose giving the lowest T/C value without toxicity (early death or weight loss greater than 20%).

Assay [4] concerns KB-3-1 human epidermoid carcinoma. Nature of the assay: In vitro cytotoxicity, Microculture Tetrazolium Assay, KB-3-1. It is filed as cell-based. As to conditions: KB-3-1, 4 days incubation; read-out: IC50 (concentration which inhibits proliferation of the treated cells by 50%). On the procedure: as §1, §2

Regarding `COc1cc2c(c3c1c(=O)c1c4ccccc4ccc1n3C)[C@@H](OC(C)=O)[C@@H](OC(C)=O)C(C)(C)O2` (racemic) [Example 5, (±)-cis-1,2-Diacetoxy-6-methoxy-3,3,14-trimethyl-1,2,3,14-tetrahydro-7H-benzo[α]pyrano[3,2-h]-acridin-7-one], the IC50 was 730 nM with L1210 murine leukaemia, 1180 nM in assay [1], 570 nM in assay [2] and 140 nM in assay [4]. The same compound came in with a T/C in assay [3] (optimum dose of 4 mg/kg) of 5%. Further, the “inhibition of the tumour growth” value in assay [3] (optimum dose of 4 mg/kg) turned out to be 95%.

For the compound `COc1cc2c(c3c1c(=O)c1c4ccccc4ccc1n3C)[C@H]1OC(=O)O[C@H]1C(C)(C)O2` (racemic) [Example 6, (±)-cis-7-Methoxy-4,4,15-trimethyl-15,15c-dihydro-4H-benzo[α][1,3]-dioxolo[4′,5′:4,5]pyrano[3,2-h]acridine-2,8[3aH]-dione], the IC50 came out at 60 nM in the assay on L1210 murine leukaemia and 15 nM in assay [4].

For the compound `COc1cc2c(c3c1c(=O)c1ccccc1n3C)C=CC(C)(C)O2` [acronycine, reference compound], the T/C in assay [3] (optimum dose of 100 mg/kg) came to 27%.

By T/C is commonly meant the result in the treated group divided by that in the control group, in per cent.
